Measured values: patent US20260315436A1, “METHOD OF TREATING DISORDERS WITH SURF1 MALFUNCTION” (Cure Mito Foundation, priority 2023, published 2026)
“Also recorded” adds a separate entry of the source.

Tests used:
[1] = tested on: GM28010 SURF1 mutant fibroblasts; assay: Seahorse mitochondrial stress test, fibroblast cell line GM28010 (Experiment 1, single compounds); assay type: cell-based, human; details: 48 h; for increase in ATP-linked respiration / increase in maximal respiration: both glucose and galactose-cultured cells; for ATP-linked respiration / basal respiration: galactose-cultured cells
Procedure: (§1) In order to evaluate selected compounds' impact on mitochondrial function in patient-derived fibroblasts compared to controls, three seahorse assays were conducted, Exp. 1: Fibroblast cell line GM28010—single compounds; Exp. 2. Fibroblast cell line GM28010—combination of compounds+ Single compounds; and Exp. 3: Fibroblast cell line GM28012—single compounds. Seahorse XF24 Extracellular Flux Analyzers continuously measure oxygen concentration and proton flux in the cell supernatant over time (Wu et al., 2007). The oxygen concentration and proton flux measurements are converted in OCR and ECAR values. This enables a direct quantification of mitochondrial respiration and glycolysis. The aim of the seahorse assays is to evaluate the impact of selected compounds on mitochondrial function in patient-derived fibroblasts compared to controls. Compounds used in the seahorse assays include posacanazole, sertaconazole, glabridin, zinglibroside (ginsenoside Z R1), AM281, cysteamine bitrartate, PF-06447475, losmapimod, telepravir, miltefosine, incyclinide, poziotinib, and methylene blue.
Fibroblast cell line GM28010 is a primary human fibroblast cell line obtained from patients with SURF1 Leigh syndrome. It was purchased from the Coriell Cell Repositories (Camden, NJ, repository number GM28010). Cell line GM00038 was used as a healthy control for GM28010 and is a primary human fibroblast purchased from the Coriell Cell Repositories (Camden, NJ, repository number GM00038).
Fibroblasts were grown in glucose according to recommendation.
Cells were plated in XF96 plates in culture medium and were plated at 10,000 cells/well.
The day after plating, cells were treated with the compounds in Table 1. The treatments were completed in glucose medium and galactose medium. The compounds were tested at for 48 hours. The compounds were incubated at (37 C, 5% CO2) until the day of the experiment.
*Fibroblasts were run at passage numbers: GM28010 SURF1 Fibroblasts P5; GM00038F controls P9.
• Assay Medium: 10 mM glucose or galactose DMEM supplemented with 2 mM glutamine and 1 mM pyruvate. • Injection Ports for basal glucose: Port A: 2 μM oligomycin; Port B: 2.5 μM FCCP; Port C: 4 μM FCCP; and Port D: 2 μM rotenone and antimycin A.
Data were normalized to cell number per well after the run. The Hoechst-stained nuclei were counted with the Operetta High-Content Imager.
(§2) • Basal Oxygen Consumption (OCR): This reflects the cellular oxygen usage under basal conditions, encompassing both energy production (ATP turnover) and background oxygen leak from the mitochondria. • Oligomycin Injection: Oligomycin is a compound that inhibits ATP synthase, an enzyme crucial for ATP production within mitochondria. • Oligomycin-resistant Respiration: After oligomycin injection, minimal oxygen consumption persists, representing non-ATP linked oxygen leak from the mitochondria, often termed proton leak. • ATP-linked Respiration: This value is derived by subtracting the oligomycin-resistant respiration from the basal OCR. It signifies the oxygen consumption specifically linked to ATP production through mitochondrial oxidative phosphorylation. • Mitochondrial Bioenergetic Efficiency: This parameter reflects the percentage decrease in oxygen consumption observed after oligomycin injection, indicating the mitochondria's efficiency in utilizing oxygen for ATP generation. • FCCP Injection: FCCP is a chemical that disrupts the link between mitochondrial electron transport and ATP production. • Maximal Respiration: Following FCCP injection, the highest oxygen consumption rate is measured, representing the maximum capacity of the mitochondria to utilize oxygen for respiration. • Spare Respiratory Capacity: This parameter is calculated by subtracting basal respiration from maximal respiration.

[2] = tested on: GM28012 SURF1 fibroblasts; assay: Seahorse mitochondrial stress test, fibroblast cell line GM28012 (Experiment 3, single compounds); assay type: cell-based, human; details: 48 h; for total ATP: highest concentration (10 uM); for increase in respiration compared with GM28010: GM28012 vs GM28010
Procedure: as §1, §2
GM28010 primary human fibroblasts obtained from patients with SURF1 Leigh syndrome were purchased from the Coriell Cell Repositories (Camden, N.J.; repository number GM28010).
GM00038 primary human fibroblasts purchased from the Coriell Cell Repositories (Camden, N.J., repository number GM00038) and were used as a healthy control.
Fibroblasts were grown in glucose according to recommendation. Cells were plated in XF96 plates in culture medium and plated at 10,000 cells/well. The day after plating, the cells were treated with the compounds. The treatments completed in glucose medium and galactose medium. The compounds were tested at for 48 hours. The compounds were incubated at (37 C, 5% CO2) until the day of the experiment. The fibroblasts were run at passage numbers: GM28012 SURF1 Fibroblasts P5.
The assay medium was 10 mM glucose or galactose DMEM supplemented with 2 mM glutamine and 1 mM pyruvate. Injection Ports for basal glucose: Port A: 2 μM oligomycin; Port B: 2.5 μM FCCP; Port C: 4 μM FCCP; and Port D: 2 μM rotenone and antimycin A.
The data were normalized to cell number per well after the run. The Hoechst-stained nuclei were counted with a Operetta High-Content Imager.

[3] = glucose and galactose conditions
[4] = glucose and galactose conditions, listed as glabridin
[5] = glucose and galactose conditions, listed as Posacanazole
[6] = glucose and galactose conditions, listed as miltefosine
[7] = glucose-cultured cells, listed as Telepravir
[8] = glucose-cultured cells, listed as incyclinide
[9] = 10 μM, listed as Ginsenoside Z R1 (Zinglibroside)

N#Cc1cccc(-c2c[nH]c3ncnc(N4CCOCC4)c23)c1 [PF-06447475]
ATP production through OXPHOS [1]: increase in ATP production; also recorded: both conditions. ↑ ATP | ATP production through glycolysis [1]: increase in ATP production; also recorded: both conditions. ↑ ATP | maximal respiration [1, 3]: did not result increase maximal respiration; also recorded: did not result in an increase | ATP production through glycolysis [2]: increase in ATP production glycolysis; also recorded: both conditions. ↑ ATP | total ATP production rate ([2]; 1 μM): increased the total ATP Production rate | maximal respiration (maximal OCR) [2, 3]: did not result increase maximal respiration

CC1(C)C=Cc2c(ccc3c2OC[C@@H](c2ccc(O)cc2O)C3)O1 [Glabridin, glabridin]
respiration [1, 3]: did not result in major changes | respiration [1, 4]: did not result in major changes | maximal respiration (maximal OCR) [2, 3]: ↓ maximal OCR in both | maximal respiration (maximal OCR) [2, 4]: decreased maximal respiration

C=CC(=O)N1CCC(Oc2cc3c(Nc4ccc(Cl)c(Cl)c4F)ncnc3cc2OC)CC1 [Poziotinib, poziotinib]
respiration ([1]; glucose and galactose conditions, listed as poziotinib): did not result in major changes | glycolysis ([1]; glucose-cultured cells): dose-dependent decrease | maximal respiration ([1]; glucose-cultured cells): dose-dependent decrease | toxicity ([1]; glucose-cultured cells): some toxicity | ATP production through glycolysis ([1]; listed as poziotinib): decrease ATP production through glycolysis

CC[C@@H]([C@H](C)O)n1ncn(-c2ccc(N3CCN(c4ccc(OC[C@@H]5CO[C@@](Cn6cncn6)(c6ccc(F)cc6F)C5)cc4)CC3)cc2)c1=O [Posaconazole, posaconazole]
toxicity ([1]; all concentrations): toxic at all conc | respiration [1, 3]: did not result in major changes | respiration [1, 5]: ↓ respiration | respiration ([1]; higher concentrations): decreased respiration | total ATP production rate [2]: compensation with increased glycolysis | respiration [2, 3]: decreased respiration | respiration [2, 5]: ↓ respiration, total ATP rate | total ATP [2]: total ATP drops | total ATP ([2]; listed as Posacanazole): (10 uM) where ATP drops | total ATP production rate ([2]; listed as Posacanazole): compensated by glycolysis

Cc1c(F)cc(C(=O)NC2CC2)cc1-c1ccc(C(=O)NCC(C)(C)C)cn1 [Losmapimod, losmapimod]
ATP production through glycolysis [1]: conditions. ↓ ATP production | increase in ATP-linked respiration [1]: 12-15% increases in | increase in maximal respiration [1]: 12-15% increases in | increase in ATP-linked respiration ([1]; listed as losmapimod): 12-15% | increase in maximal respiration ([1]; listed as losmapimod): 12-15% | respiration [1, 3]: Increased respiration | increase in respiration ([1]; glucose and galactose culture conditions): up to 15% | ATP production through glycolysis ([1]; listed as losmapimod): decrease in ATP production through glycolysis | ATP production through OXPHOS [2]: Increased ATP-linked respiration and ATP production through OXPHOS | ATP production through glycolysis [2]: glucose-cultured cells. ↓ATP | total ATP production rate [2]: without changes; also recorded: maintained | increase in respiration compared with GM28010 [2]: did not increase respiration as much | increase in respiration compared with GM28010 ([2]; listed as losmapimod): not as impressive as was observed in GM28010 | ATP-linked respiration ([2]; glucose-cultured cells, listed as losmapimod): increased in ATP-linked respiration | ATP production through glycolysis ([2]; listed as losmapimod): decrease in ATP production through glycolysis | total ATP production rate ([2]; listed as losmapimod): maintained | ATP-linked respiration ([2]; medium not stated): Increased ATP-linked respiration

Cc1c(C(=O)NN2CCOCC2)nn(-c2ccc(Cl)cc2Cl)c1-c1ccc(I)cc1 [AM281]
ATP production through glycolysis ([1]; 5 and 10 μM): increase in ATP production primarily through glycolysis | respiration [1, 3]: did not result in major changes | ATP production rates [2]: increased ATP production rates | ATP via glycolysis ([2]; 1 μM and 5 μM): OCR. ↑ATP via glycolysis @ | maximal respiration (maximal OCR) [2, 3]: dose-dependent decreased maximal respiration

CCCCCCCCCCCCCCCCOP(=O)([O-])OCC[N+](C)(C)C [Miltefosine, miltefosine]
respiration [1, 6]: did not result in major changes | ATP production through glycolysis [2]: both conditions; ↑ in ATP | respiration [2, 6]: did not result in major changes | ATP production through glycolysis ([2]; listed as miltefosine): increase in ATP production through glycolysis

CCC[C@H](NC(=O)[C@@H]1[C@H]2CCC[C@H]2CN1C(=O)[C@@H](NC(=O)[C@@H](NC(=O)c1cnccn1)C1CCCCC1)C(C)(C)C)C(=O)C(=O)NC1CC1 [Telaprevir, telaprevir]
respiration [1, 3]: did not result in major changes | ATP production through OXPHOS [2]: Dose-dependent increase | total ATP production rate [2]: without changes | respiration ([2]; galactose conditions): did not result in major changes | ATP production through OXPHOS ([2]; glucose): dose-dependent increase | ATP-linked respiration ([2]; glucose-cultured cells): dose-dependent increase | maximal respiration ([2]; glucose-cultured cells): without any changes | ATP-linked respiration [2, 7]: dependent ↑ATP-Linked | maximal respiration [2, 7]: through OXPHOS, no change | ATP production through OXPHOS ([2]; glucose, listed as Telepravir): dependent ↑ATP-Linked

NC(=O)C1=C(O)C[C@@H]2C[C@@H]3Cc4cccc(O)c4C(=O)C3=C(O)[C@]2(O)C1=O [Incyclinide, incyclinide]
ATP-linked respiration [1]: ↑ basal respiration and ATP- | basal respiration [1]: ↑ basal respiration and ATP- | ATP-linked respiration ([1]; listed as incyclinide): some increase | basal respiration ([1]; listed as incyclinide): some increase | all respiratory parameters measured ([1]; glucose-cultured cells): dose-dependent decrease | toxicity ([1]; glucose-cultured cells): Toxicity in glucose | toxicity [1, 8]: some toxicity | all respiratory parameters measured ([2]; glucose-cultured cells): dose-dependent decrease | toxicity ([2]; glucose-cultured cells): Toxicity observed in glucose | toxicity [2, 8]: showed toxicity

CC1(C)CC[C@]2(C(=O)O)CC[C@]3(C)C(=CC[C@@H]4[C@@]5(C)CC[C@H](O[C@@H]6O[C@H](C(=O)O)[C@@H](O)[C@H](O)[C@H]6O[C@@H]6O[C@H](CO)[C@@H](O)[C@H](O)[C@H]6O)C(C)(C)[C@@H]5CC[C@]43C)[C@@H]2C1 [Ginsenoside Z R1]
ATP production through OXPHOS [1, 9]: increase in ATP production | ATP production through glycolysis [1, 9]: increase in ATP production | ATP production through OXPHOS ([1]; 10 μM, listed as Zinglibroside): both conditions: ↑ATP via | ATP production through glycolysis ([1]; 10 μM, listed as Zinglibroside): both conditions: ↑ATP via | ATP production through OXPHOS ([1]; 10 μM, listed as zinglibroside): increase in ATP production | ATP production through glycolysis ([1]; 10 μM, listed as zinglibroside): increase in ATP production | maximal respiration [1, 3]: did not result in changes | ATP production through OXPHOS [2]: increase in ATP production | ATP production through glycolysis [2]: increase in ATP production | ATP production through OXPHOS ([2]; 1 μM): increased ATP production through OXPHOS | total ATP production rate ([2]; 1 μM): increased ATP production through OXPHOS and total ATP production rate | maximal respiration (maximal OCR) [2, 3]: did not result in changes
